From PMC6857076 (Pharmacology Research & Perspectives, 2019)
Read-outs that look alike come from different tables or passages of the source.

Legend:
[1] = test system: IFNγ cytokine receptor (JAK1/JAK2); assay: Human whole blood, IFNγ-induced pSTAT1, CD14+ cells; assay type: cell-based; conditions: for IC50: Homo sapiens
Procedure: Blood was warmed to 37°C prior to use.
(§1) Then, 5 µL of PBS or cytokine was added to each well (5 µL/well; final, 10 U/mL EPO, 100 ng/mL G‐CSF, 10 ng/mL GM‐CSF, 5000 U/mL IFNα, 100 ng/mL IFNγ, 50 ng/mL IL‐2, 50 ng/mL IL‐3, 5 ng/mL IL‐4, 50 ng/mL IL‐6, 30 ng/mL IL‐7, 30 ng/mL IL‐10, 30 ng/mL IL‐12, 30 ng/mL IL‐13, 30 ng/mL IL‐15, 50 ng/mL IL‐21, 25 ng/mL IL‐23, 1000 ng/mL IL‐27) and incubated for 15 minutes. Anti‐cell surface antibodies were added 15 minutes prior to cytokine stimulation; anti‐CD14‐Pacific Blue (0.5 µL/well) to GM‐CSF, IFNγ, and TPO‐treated samples; anti‐CD3‐BV650 (0.5 µL/well) plus anti‐CD14‐Pacific Blue (0.5 µL/well) to IL‐6‐treated samples; and anti‐CD19‐BV421 (0.5 µL/well) plus anti‐CD14‐AF488 (0.5 µL/well) to IL‐13‐treated samples.
(§2) One more wash was done with staining buffer and all samples were finally suspended in 150 µL/well of the desired anti‐pSTAT antibodies at 1:150 dilution in staining buffer; anti‐pSTAT1‐AF647 in IFNγ‐treated samples; anti‐pSTAT1‐AF488 and anti‐pSTAT3‐AF647 in IFNα‐, IL‐6‐, and IL‐27‐treated samples; anti‐pSTAT3‐AF647 in G‐CSF‐, IL‐10‐, IL‐21‐, and IL‐23‐treated samples; anti‐pSTAT4‐AF647 in IL‐12‐treated samples; anti‐pSTAT5‐AF647 in EPO‐, GM‐CSF‐, IL‐2‐, IL‐3‐, IL‐7‐, IL‐15‐, and TPO‐treated samples; anti‐pSTAT5‐AF488 and anti‐pSTAT6‐AF647 in IL‐4‐treated samples; and anti‐pSTAT6‐AF647 in IL‐13‐treated samples.
(§3) The lymphocyte population was gated for pSTAT histogram analysis for IFNα‐, IL‐2‐, IL‐3‐, IL‐4‐, IL‐7‐, IL‐10‐, IL‐12‐, IL‐15‐, IL‐21‐, IL‐23‐, and IL‐27‐treated samples; granulocyte population for G‐CSF‐treated samples; CD14^+ cells for GM‐CSF‐, IFNγ‐, and TPO‐treated samples; CD3^+ cells and CD14^+ cells for IL‐6‐treated samples; CD14^+ cells and CD19^+ cells for IL‐13‐treated samples; all events (entire populations) for EPO‐treated cells. Background fluorescence was defined using unstimulated cells and a gate was placed at the foot of the peak to include ~0.5% gated population.
(§4) Histogram statistical analysis was performed using FACSDiva version 8.0.1 (BD Biosciences). Relative fluorescence unit (RFU), which measures the level of pSTAT, was calculated by multiplying the percent positive population and its mean fluorescence. Data from 11 compound concentrations (singlicate at each concentration) were normalized as a percentage of control, as shown in Equation 1:(1) %ofcontrol=100×A−B/C−B
(§5) A, RFU from wells containing compound and cytokine; B, RFU from wells without cytokine (minimum fluorescence); C, RFU from wells containing only cytokine (maximum fluorescence).
(§6) Inhibition curves and IC50 values were determined using Prism software (Version 7, GraphPad).

[2] = test system: G-CSF cytokine receptor (JAK1/JAK2); assay: Human whole blood, G-CSF-induced pSTAT3, granulocytes; assay type: cell-based
Procedure: Blood was warmed to 37°C prior to use.
(§7) Then, 5 µL of PBS or cytokine was added to each well (5 µL/well; final, 10 U/mL EPO, 100 ng/mL G‐CSF, 10 ng/mL GM‐CSF, 5000 U/mL IFNα, 100 ng/mL IFNγ, 50 ng/mL IL‐2, 50 ng/mL IL‐3, 5 ng/mL IL‐4, 50 ng/mL IL‐6, 30 ng/mL IL‐7, 30 ng/mL IL‐10, 30 ng/mL IL‐12, 30 ng/mL IL‐13, 30 ng/mL IL‐15, 50 ng/mL IL‐21, 25 ng/mL IL‐23, 1000 ng/mL IL‐27) and incubated for 15 minutes. […]
as §3
(§8) Histogram statistical analysis was performed using FACSDiva version 8.0.1 (BD Biosciences). Relative fluorescence unit (RFU), which measures the level of pSTAT, was calculated by multiplying the percent positive population and its mean fluorescence. […]
as §6

[3] = test system: IFNα cytokine receptor (JAK1/TYK2); assay: Human whole blood, IFNα-induced pSTAT1, lymphocytes; assay type: cell-based; conditions: for IC50: Homo sapiens, Lymphocyte
Procedure: Blood was warmed to 37°C prior to use.
as §1, §2, §3, §4, §5, §6

[4] = test system: IFNα cytokine receptor (JAK1/TYK2); assay: Human whole blood, IFNα-induced pSTAT3, lymphocytes; assay type: cell-based; conditions: Lymphocyte
Procedure: Blood was warmed to 37°C prior to use.
as §1, §2, §3, §4, §5, §6

[5] = test system: IL-10 cytokine receptor (JAK1/TYK2); assay: Human whole blood, IL-10-induced pSTAT3, lymphocytes; assay type: cell-based; conditions: Lymphocyte
Procedure: Blood was warmed to 37°C prior to use.
as §1, §2, §3, §4, §5, §6

[6] = test system: IL-6 cytokine receptor (JAK1/JAK2, JAK1/TYK2); assay: Human whole blood, IL-6-induced pSTAT1, CD3+ cells; assay type: cell-based; conditions: for IC50: Homo sapiens
Procedure: Blood was warmed to 37°C prior to use.
as §1, §2, §3, §4, §5, §6

[7] = test system: IL-6 cytokine receptor (JAK1/JAK2, JAK1/TYK2); assay: Human whole blood, IL-6-induced pSTAT3, CD3+ cells; assay type: cell-based
Procedure: Blood was warmed to 37°C prior to use.
(§9) Anti‐cell surface antibodies were added 15 minutes prior to cytokine stimulation; anti‐CD14‐Pacific Blue (0.5 µL/well) to GM‐CSF, IFNγ, and TPO‐treated samples; anti‐CD3‐BV650 (0.5 µL/well) plus anti‐CD14‐Pacific Blue (0.5 µL/well) to IL‐6‐treated samples; and anti‐CD19‐BV421 (0.5 µL/well) plus anti‐CD14‐AF488 (0.5 µL/well) to IL‐13‐treated samples.
as §3, §4, §5, §6

[8] = test system: IL-6 cytokine receptor (JAK1/JAK2, JAK1/TYK2); assay: Human whole blood, IL-6-induced pSTAT1, CD14+ cells; assay type: cell-based
Procedure: Blood was warmed to 37°C prior to use.
as §9, §3, §4, §5, §6

[9] = test system: IL-13 cytokine receptor (JAK1/JAK2, JAK1/TYK2); assay: Human whole blood, IL-13-induced pSTAT6, CD14+ cells; assay type: cell-based
Procedure: Blood was warmed to 37°C prior to use.
as §9, §3, §4, §5, §6

[10] = test system: IL-13 cytokine receptor (JAK1/JAK2, JAK1/TYK2); assay: Human whole blood, IL-13-induced pSTAT6, CD19+ cells; assay type: cell-based
Procedure: Blood was warmed to 37°C prior to use.
as §9, §3, §4, §5, §6

[11] = test system: IL-27 cytokine receptor (JAK1/JAK2, JAK1/TYK2); assay: Human whole blood, IL-27-induced pSTAT1, lymphocytes; assay type: cell-based; conditions: Lymphocyte
Procedure: Blood was warmed to 37°C prior to use.
as §9, §3, §4, §5, §6

[12] = test system: IL-27 cytokine receptor (JAK1/JAK2, JAK1/TYK2); assay: Human whole blood, IL-27-induced pSTAT3, lymphocytes; assay type: cell-based; conditions: Lymphocyte
Procedure: Blood was warmed to 37°C prior to use.
as §1, §2, §3, §4, §5, §6

[13] = test system: IL-2 cytokine receptor (JAK1/JAK3); assay: Human whole blood, IL-2-induced pSTAT5, lymphocytes; assay type: cell-based; conditions: Lymphocyte
Procedure: Blood was warmed to 37°C prior to use.
as §1, §2, §3, §4, §5, §6

[14] = test system: IL-4 cytokine receptor (JAK1/JAK3); assay: Human whole blood, IL-4-induced pSTAT5, lymphocytes; assay type: cell-based; conditions: Lymphocyte
Procedure: Blood was warmed to 37°C prior to use.
as §7, §3, §8, §6

[15] = test system: IL-4 cytokine receptor (JAK1/JAK3); assay: Human whole blood, IL-4-induced pSTAT6, lymphocytes; assay type: cell-based; conditions: Lymphocyte
Procedure: Blood was warmed to 37°C prior to use.
as §1, §2, §3, §4, §5, §6

[16] = test system: IL-7 cytokine receptor (JAK1/JAK3); assay: Human whole blood, IL-7-induced pSTAT5, lymphocytes; assay type: cell-based; conditions: Lymphocyte
Procedure: Blood was warmed to 37°C prior to use.
as §1, §2, §3, §4, §5, §6

[17] = test system: IL-15 cytokine receptor (JAK1/JAK3); assay: Human whole blood, IL-15-induced pSTAT5, lymphocytes; assay type: cell-based; conditions: for IC50: Homo sapiens, Lymphocyte
Procedure: Blood was warmed to 37°C prior to use.
as §1, §2, §3, §4, §5, §6

[18] = test system: IL-21 cytokine receptor (JAK1/JAK3); assay: Human whole blood, IL-21-induced pSTAT3, lymphocytes; assay type: cell-based; conditions: Lymphocyte
Procedure: Blood was warmed to 37°C prior to use.
as §1, §2, §3, §4, §5, §6

[19] = test system: IL-12 cytokine receptor (JAK2/TYK2); assay: Human whole blood, IL-12-induced pSTAT4, lymphocytes; assay type: cell-based; conditions: for IC50: Homo sapiens, Lymphocyte
Procedure: Blood was warmed to 37°C prior to use.
as §1, §2, §3, §4, §5, §6

[20] = test system: IL-23 cytokine receptor (JAK2/TYK2); assay: Human whole blood, IL-23-induced pSTAT3, lymphocytes; assay type: cell-based; conditions: Lymphocyte
Procedure: Blood was warmed to 37°C prior to use.
as §7, §3, §8, §6

[21] = test system: EPO cytokine receptor (JAK2/JAK2); assay: Human whole blood spiked with CD34+-derived erythroid progenitor cells, EPO-induced pSTAT5; assay type: cell-based; conditions: for IC50: Homo sapiens, Erythroid progenitor cell
Procedure: CD34^+ cells were then harvested, washed once with Dulbecco's (D)‐PBS, and suspended at 0.5 x 10^6 cells/mL in human whole blood to be used in the EPO stimulation assay.
Blood was warmed to 37°C prior to use.
Background fluorescence was defined using unstimulated cells and a gate was placed at the foot of the peak to include ~0.5% gated population.
as §4, §5, §6

[22] = test system: TPO cytokine receptor (JAK2/JAK2); assay: Human whole blood, TPO-induced pSTAT5, CD14+ cells; assay type: cell-based; conditions: Homo sapiens
Procedure: Blood was warmed to 37°C prior to use.
as §1, §2, §3, §4, §5, §6

[23] = test system: IL-3 cytokine receptor (JAK2/JAK2); assay: Human whole blood, IL-3-induced pSTAT5, lymphocytes; assay type: cell-based; conditions: Homo sapiens, Lymphocyte
Procedure: Blood was warmed to 37°C prior to use.
as §1, §2, §3, §4, §5, §6

[24] = test system: GM-CSF cytokine receptor (JAK2/JAK2); assay: Human whole blood, GM-CSF-induced pSTAT5, CD14+ cells; assay type: cell-based; conditions: Homo sapiens
Procedure: Blood was warmed to 37°C prior to use.
as §1, §2, §3, §4, §5, §6

[25] = unbound, Cav × fu; upadacitinib 15 mg QD
CRP = conditions: RA; upadacitinib 6 mg BID; cited from earlier work
[26] = phase 3 RA studies; cited from earlier work
in vitro = conditions: both, human, pooled human plasma
[27] = human; upadacitinib 15 mg QD; cited from earlier work
NK cell counts = conditions: RA; upadacitinib 6 mg BID; week 12; cited from earlier work

CC[C@@H]1CN(C(=O)NCC(F)(F)F)C[C@@H]1c1cnc2cnc3[nH]ccc3n12 [Upadacitinib]
LogIC50, IFNγ induced pSTAT1, single experiment [1]: -7.002 log[M]
IC50 ([1]; read-out: IC50, IFNγ induced pSTAT1, single experiment): 99.6 nM
IC50 ([1]; read-out: IC50, IFNγ, pSTAT1): 109 nM
IC50 ([1]; read-out: IC50,u, IFNγ, pSTAT1): 53 nM
IC50 ([2]; read-out: IC50, G-CSF, pSTAT3): 78 nM
IC50 ([2]; read-out: IC50,u, G-CSF, pSTAT3): 38 nM
LogIC50, IFNα induced pSTAT1, single experiment ([3]; Figure S1B, Donor 256, Exp 1): -7.685 log[M]
IC50 ([3]; read-out: IC50, IFNα induced pSTAT1, single experiment): 20.7 nM
IC50 ([3]; read-out: IC50, IFNα, pSTAT1): 21 nM
IC50 ([3]; read-out: IC50,u, IFNα, pSTAT1): 10 nM
IC50 ([4]; read-out: IC50, IFNα, pSTAT3): 19 nM
IC50 ([4]; read-out: IC50,u, IFNα, pSTAT3): 9.2 nM
IC50 ([5]; read-out: IC50, IL-10, pSTAT3): 90 nM
IC50 ([5]; read-out: IC50,u, IL-10, pSTAT3): 43 nM
LogIC50, IL-6 induced pSTAT1 (CD3+ cells), single experiment [6]: -7.893 log[M]
IC50 ([6]; read-out: IC50, IL-6, pSTAT1, CD3+ cells): 12 nM
IC50 ([6]; read-out: IC50, IL-6 induced pSTAT1 (CD3+ cells), single experiment): 12.8 nM
IC50 ([6]; read-out: IC50,u, IL-6, pSTAT1, CD3+ cells): 5.9 nM
IC50 ([7]; read-out: IC50, IL-6, pSTAT3, CD3+ cells): 152 nM
IC50 ([7]; read-out: IC50,u, IL-6, pSTAT3, CD3+ cells): 73 nM
IC50 ([8]; read-out: IC50, IL-6, pSTAT1, CD14+ cells): 26 nM
IC50 ([8]; read-out: IC50,u, IL-6, pSTAT1, CD14+ cells): 13 nM
IC50 ([9]; read-out: IC50, IL-13, pSTAT6, CD14+ cells): 126 nM
IC50 ([9]; read-out: IC50,u, IL-13, pSTAT6, CD14+ cells): 61 nM
IC50 ([10]; read-out: IC50, IL-13, pSTAT6, CD19+ cells): 72 nM
IC50 ([10]; read-out: IC50,u, IL-13, pSTAT6, CD19+ cells): 35 nM
IC50 ([11]; read-out: IC50, IL-27, pSTAT1): 52 nM
IC50 ([11]; read-out: IC50,u, IL-27, pSTAT1): 25 nM
IC50 ([12]; read-out: IC50, IL-27, pSTAT3): 44 nM
IC50 ([12]; read-out: IC50,u, IL-27, pSTAT3): 21 nM
IC50 ([13]; read-out: IC50, IL-2, pSTAT5): 50 nM
IC50 ([13]; read-out: IC50,u, IL-2, pSTAT5): 24 nM
IC50 ([14]; read-out: IC50, IL-4, pSTAT5): 8.2 nM
IC50 ([14]; read-out: IC50,u, IL-4, pSTAT5): 4 nM
IC50 ([15]; read-out: IC50, IL-4, pSTAT6): 77 nM
IC50 ([15]; read-out: IC50,u, IL-4, pSTAT6): 37 nM
IC50 ([16]; read-out: IC50, IL-7, pSTAT5): 101 nM
IC50 ([16]; read-out: IC50,u, IL-7, pSTAT5): 49 nM
LogIC50, IL-15 induced pSTAT5, single experiment [17]: -7.157 log[M]
IC50 ([17]; read-out: IC50, IL-15, pSTAT5): 64 nM
IC50 ([17]; read-out: IC50, IL-15 induced pSTAT5, single experiment): 69.7 nM
IC50 ([17]; read-out: IC50,u, IL-15, pSTAT5): 31 nM
IC50 ([18]; read-out: IC50, IL-21, pSTAT3): 51 nM
IC50 ([18]; read-out: IC50,u, IL-21, pSTAT3): 25 nM
LogIC50, IL-12 induced pSTAT4, single experiment [19]: -6.953 log[M]
IC50 ([19]; read-out: IC50, IL-12, pSTAT4): 145 nM
IC50 ([19]; read-out: IC50, IL-12 induced pSTAT4, single experiment): 112 nM
IC50 ([19]; read-out: IC50,u, IL-12, pSTAT4): 70 nM
IC50 ([20]; read-out: IC50, IL-23, pSTAT3): 242 nM
IC50 ([20]; read-out: IC50,u, IL-23, pSTAT3): 117 nM
LogIC50, EPO induced pSTAT5, single experiment [21]: -6.909 log[M]
IC50 ([21]; read-out: IC50, EPO induced pSTAT5, single experiment): 123 nM
IC50 ([21]; read-out: IC50, EPO, pSTAT5): 174 nM
IC50 ([21]; read-out: IC50,u, EPO, pSTAT5): 84 nM
IC50 ([22]; read-out: IC50, TPO, pSTAT5): 297 nM
IC50 ([22]; read-out: IC50,u, TPO, pSTAT5): 143 nM
IC50 ([23]; read-out: IC50, IL-3, pSTAT5): 326 nM
IC50 ([23]; read-out: IC50,u, IL-3, pSTAT5): 158 nM
IC50 ([24]; read-out: IC50, GM-CSF, pSTAT5): 782 nM
IC50 ([24]; read-out: IC50,u, GM-CSF, pSTAT5): 377 nM
Cav,u [25]: 27.4 nM
reduction of CRP levels from baseline to week 12 (CRP): -8.8 mg/L
herpes zoster occurrence [26]: reported
fraction unbound at 6 h, 1 μmol/L (in vitro): 0.56
Cav [27]: 49 nM
change from baseline in NK cell counts (NK cell counts): approximately −50 cells/mm^3
